Test results reported in US7709010B2, “Papillomavirus vaccine compositions” (Merck Sharp & Dohme Corp., priority 2007, dated 2010).

What was measured:
[1] = test system: microorganisms (e.g., bacteria and fungi); assay: Anti-microbial effectiveness (AME) test (USP, EP-B, EP-A criteria); type: cell-based; details: initial screening, octavalent HPV formulation with MAA, stored one week at 2-8° C. before test
Procedure: The effectiveness of various preservatives in candidate HPV vaccine formulations was evaluated using an antimicrobial test (anti-microbial effectiveness (AME) test). AME testing was used to determine the ability of a preservative to reduce or eliminate microbes that may be introduced into the vial following product withdrawal. […] Briefly, the AME test comprises the EPA, EPB and USP criteria, which consist of inoculating 10^5-10^6 CFU/mL microorganisms (e.g., bacteria and fungi) per container at time zero, and evaluating the log reduction over time (Meyer et al., supra).
Thimerosal was also included as a reference.
All samples contained 562.5 mcg/mL MAA, 0.32 M NaCl, 10 mM His, 0.01% polysorbate-80 (PS-80), pH 6.2. Formulations containing chlorobutanol and propylparaben were tested with and without the addition of 120 mcg/mL ISCOMATRIX®.
Preservatives were added to octavalent HPV formulations comprising 8 types of HPV VLPs, as described in EXAMPLE 1, and were stored for one week at 2-8° C. prior to AME testing.
Several HPV vaccine formulations with various dose and combinations of preservatives, in the presence or absence of IMX adjuvant, were tested.
Each type of HPV VLP aqueous bulk was absorbed on MAA separately with a protein-to-adjuvant ratio of 0.71 to form the monovalent vaccines in 0.32 M NaCl, 10 mM Histidine (pH 6.2), 0.01% (w/v) PS-80. […]

[2] = target: HPV18 VLPs (Human papillomavirus type 18, UniProt P06794); type: physicochemical, HPV; details: data not shown
Procedure: Differential Scanning Calorimetry (DSC) was used to evaluate the impact of preservatives on protein structural and thermal stability. The analysis for antigen thermal stability was determined using a VP-Capillary DSC Platform (MicroCal, LLC, Northampton, Mass.). A detailed description of the conditions utilized is disclosed in Ionescu et al. (2007) (J. Pharm. Sci. 97(4): 1414-1426 (2008)).
The DSC evaluation was carried out in the presence of various preservatives with varied concentrations.

[3] = target: HPV Type 18 VLPs (Human papillomavirus type 18, UniProt P06794); type: binding; details: HPV18 VLPs, 2 months at 2-8° C., n=2, Biacore
Chain of HPV Type 18 VLPs (P06794 whole entry): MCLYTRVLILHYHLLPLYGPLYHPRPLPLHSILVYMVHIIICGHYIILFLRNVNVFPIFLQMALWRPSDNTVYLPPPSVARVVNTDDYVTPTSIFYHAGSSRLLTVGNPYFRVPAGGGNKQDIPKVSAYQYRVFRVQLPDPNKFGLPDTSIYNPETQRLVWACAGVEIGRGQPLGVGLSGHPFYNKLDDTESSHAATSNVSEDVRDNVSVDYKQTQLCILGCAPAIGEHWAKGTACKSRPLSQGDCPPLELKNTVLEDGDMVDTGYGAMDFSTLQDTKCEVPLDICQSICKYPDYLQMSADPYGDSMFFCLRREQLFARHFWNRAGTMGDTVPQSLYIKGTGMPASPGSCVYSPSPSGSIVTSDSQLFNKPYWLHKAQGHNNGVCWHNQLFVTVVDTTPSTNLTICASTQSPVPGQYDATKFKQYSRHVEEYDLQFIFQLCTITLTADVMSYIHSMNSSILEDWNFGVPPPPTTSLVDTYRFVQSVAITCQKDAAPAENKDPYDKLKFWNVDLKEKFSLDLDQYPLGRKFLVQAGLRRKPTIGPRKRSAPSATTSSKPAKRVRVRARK
Procedure: The in vitro antigenicity of HPV vaccine formulations comprising HPV18 VLPs and different preservatives was evaluated using a neutralization antibody binding assay (Biacore, Surface Plasmon Resonance). The analysis for antigen bioactivity was determined using the Biacore 2000 (VPR 332) and Biacore 3000 (VPR 696) (Biacore, Inc., Piscataway, N.J.).
Samples were incubated for 2 months at 2-8° C. prior to sample treatment by aluminum dissolution, followed by the final Biacore analysis.

Chain of HPV18 VLPs (P06794 whole entry): as above

Compound: OCCOc1ccccc1 [2-phenoxyethanol]
- AME test criteria passed (USP, EP-B, EP-A) [1]: did not pass EP-B or EP-A

Compound: C[CH2][Hg][S]c1ccccc1C(=O)[O-].[Na+] [thimerosal]
- impact on the thermal stability of HPV type 18 (DSC) [2]: greatest impact
- average relative in vitro antigenicity [3]: 80%
